In ChEMBL document CHEMBL1139718, “Design, total synthesis, and biological evaluation of neodysiherbaine A derivative as potential probes” (Bioorg Med Chem Lett, 2006):

How the values were obtained:
[1] = Displacement of [3H]kainic acid from Kainate receptor in rat synaptic membrane; assay type: cell membranes
[2] = Displacement of [3H]AMPA from AMPA receptor in rat synaptic membrane; assay type: cell membranes
Mus musculus = experiment: Epileptogenic activity in mouse, icv; assay type: functional

Compound	Ki [1]	Ki [2]	ED50 (Mus musculus)
N[C@@H](C[C@]1(C(=O)O)C[C@H]2O[C@H](CO)[C@@H](O)[C@@H](O)[C@H]2O1)C(=O)O [10-HYDROXY-METHYL-NEODYSIHERBAINE A]	790 nM	153 nM	110 pmol
CN[C@H]1[C@H]2O[C@@](C[C@H](N)C(=O)O)(C(=O)O)C[C@H]2OC[C@H]1O [DYSIHERBAINE]	26 nM	153 nM	13 pmol
N[C@@H](C[C@]1(C(=O)O)C[C@H]2OC[C@@H](O)[C@@H](O)[C@H]2O1)C(=O)O [NEODYSIHERBAINE A]	52 nM	151 nM	16 pmol
